In test [1] the test system is rat colonic mucosa. Description: Forskolin-induced short-circuit current across rat colonic mucosa. Type of test: cell-based. The settings on record: 6 μM famotidine, 3 μM cetirizine, each alone; FIG. 4. An excerpt: (§1) Data are presented as mean±standard error of mean (SEM). […] 2014 December; 63(12):1873-82).
(§2) These secretogogues were selected because PGE2 mediates the occurrence of watery diarrhea in response to a low-grade inflammatory insult and forakolin because it selectively activates all forms of cAMP-mediated intestinal secretion.

Test [2] has as its system rat colonic mucosa. Description: PGE2-induced short-circuit current across rat colonic mucosa. In kind it is cell-based. The following applies: 6 μM famotidine, 3 μM cetirizine, each alone; FIG. 3.
Text: as §1, §2

The subject of the next test is colonic hypersensitivity. Description: Three rat models of colonic hypersensitivity, overall statement and conversion to human equivalent doses. The settings on record: 0.25 mg/kg cetirizine, 0.6 mg/kg famotidine, two times per day p.o.
Test [3] deals with stress-induced visceral hypersensitivity. Description: Chronic water avoidance stress (WAS) model, visceromotor response to colorectal distension. The following applies: oral twice daily 3.5 days.
For test [4], the system named is TNBS-induced, post-inflammatory colonic hypersensitivity. Description: TNBS-induced post-inflammatory colonic hypersensitivity model, VMR to CRD. The following applies: 0.25 mg/kg cetirizine, 0.6 mg/kg famotidine, each alone, oral twice daily 3.5 days; FIG. 8.
In test [5] the test system is rat colonic mucosa. Description: Electrical field stimulation-induced short-circuit current across rat colonic mucosa in Ussing chambers. In kind it is cell-based. The following applies: individually or combined; for effect on EFS-induced ΔISC: famotidine 10 μM, cetirizine 5 μM, EFS 16 Hz, FIG. 1; for inhibition of EFS-induced ΔISC: famotidine 200 μM, cetirizine 100 μM, FIG. 2.
Text: as §1

Test [6] deals with acetic acid-induced colonic hypersensitivity. The following applies: famotidine 0.6 mg/kg, cetirizine 0.25 mg/kg, each alone, oral twice daily 3.5 days; FIG. 7.
Setting [7] is: famotidine 0.6 mg/kg, cetirizine 0.25 mg/kg, each alone, FIG. 6.
[8] abbreviates: lowest doses: famotidine 0.3 mg/kg, cetirizine 0.15 mg/kg, alone or in combination, FIG. 5.

For the molecule `O=C(O)COCCN1CCN(C(c2ccccc2)c2ccc(Cl)cc2)CC1` (centres unmarked) [cetirizine], the “effect on forskolin-induced changes in ISC” value in the test on rat colonic mucosa [1] is given as “only minimally effective”. For the same molecule, the “effect on PGE2-induced changes in ISC” value with rat colonic mucosa [2] is “neither drug alone was effective”. Also, the “inhibitory effect on colonic hypersensitivity in all three rat models” value in the test with colonic hypersensitivity was “did not result in sufficient inhibition”. In addition, the “effect on colonic hypersensitivity” value in test [3] (setting [7]) is reported as “neither drug alone had an effect”. Also, the “effect on colonic hypersensitivity” value in test [3] (setting [8]) is given as “had no effect on colonic hypersensitivity”. Besides, in test [4], the “effect on TNBS-induced colonic hypersensitivity” value is “Neither cetirizine alone nor famotidine alone exhibited any effect”. In the test with rat colonic mucosa [5], the “effect on EFS-induced ΔISC” value is listed as “had no effect” and the “inhibition of EFS-induced ΔISC” value is listed as “modest changes in ISC”.

Take `NC(N)=Nc1nc(CSCCC(N)=NS(N)(=O)=O)cs1` [famotidine]: the “effect on forskolin-induced changes in ISC” value in the test on rat colonic mucosa [1] is recorded as “only minimally effective”. Besides, the “effect on PGE2-induced changes in ISC” value with rat colonic mucosa [2] is “neither drug alone was effective”. In the test with colonic hypersensitivity, the “inhibitory effect on colonic hypersensitivity in all three rat models” value is “did not result in sufficient inhibition”. The “effect on colonic hypersensitivity” value in test [3] (setting [7]) was “neither drug alone had an effect”. Further, the “effect on colonic hypersensitivity” value in test [3] (setting [8]) is recorded as “had no effect on colonic hypersensitivity”. In addition, in test [4], the “effect on TNBS-induced colonic hypersensitivity” value was “Neither cetirizine alone nor famotidine alone exhibited any effect”. In the test with rat colonic mucosa [5], the “effect on EFS-induced ΔISC” value was “had no effect” and the “inhibition of EFS-induced ΔISC” value is “modest changes in ISC”. In test [6], the “inhibition of acetic acid-induced colonic hypersensitivity” value is reported as “not either drug alone, induced a significant inhibition”.

The values above are taken from patent US11419868B2, “Low dose product and method for treating diarrhea” (MAREGADE RX, LLC, priority 2016, dated 2022).
